Measurements: patent US6737383B1, “Herbicidal oxadiazolidines” (priority 1999, dated 2004)

Assays:
bedstraw = assay: Test B pre/postemergence bedstraw; assay type: in vivo, Galium aparine; settings: for Plant response rating, Bedstraw: Postemergence
How it was run: (§1)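 Test chemicals in a non-phytotoxic solvent mixture with surfactant were sprayed preemergence onto planted seeds and postemergence onto plants 2 to 18 cm tall (1- to 4-leaf stage). After twelve to sixteen days in a greenhouse, injury was visually rated against untreated controls from 0 (no effect) to 10 (complete control).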

surinam grass = assay: Test B pre/postemergence surinam grass; assay type: in vivo, Brachiaria decumbens
How it was run: as §1

cocklebur = assay: Test B pre/postemergence cocklebur; assay type: in vivo, Xanthium strumarium; settings: for Cocklebur plant response rating: scale of 0 to 10 where 0 is no effect and 10 is complete control
How it was run: as §1

corn = assay: Test B pre/postemergence corn; assay type: in vivo, Zea mays; settings: for Corn plant response rating: scale of 0 to 10 where 0 is no effect and 10 is complete control
How it was run: as §1

giant foxtail = assay: Test B pre/postemergence giant foxtail; assay type: in vivo, Setaria faberii; settings: for Giant foxtail plant response rating: scale of 0 to 10 where 0 is no effect and 10 is complete control
How it was run: as §1

pigweed = assay: Test B pre/postemergence pigweed; assay type: in vivo, Amaranthus retroflexus; settings: for Redroot pigweed plant response rating: scale of 0 to 10 where 0 is no effect and 10 is complete control
How it was run: as §1

rape = assay: Test B pre/postemergence rape; assay type: in vivo, Brassica napus; settings: for Rape plant response rating: scale of 0 to 10 where 0 is no effect and 10 is complete control
How it was run: as §1

soybean = assay: Test B pre/postemergence soybean; assay type: in vivo, Glycine max; settings: for Soybean plant response rating: scale of 0 to 10 where 0 is no effect and 10 is complete control
How it was run: as §1

sugar beet = assay: Test B pre/postemergence sugar beet; assay type: in vivo, Beta vulgaris; settings: for Sugarbeets plant response rating: scale of 0 to 10 where 0 is no effect and 10 is complete control
How it was run: as §1

velvetleaf = assay: Test B pre/postemergence velvetleaf; assay type: in vivo, Abutilon theophrasti; settings: for Velvetleaf plant response rating: scale of 0 to 10 where 0 is no effect and 10 is complete control
How it was run: as §1

wheat = assay: Test B pre/postemergence wheat; assay type: in vivo, Triticum aestivum; settings: for Wheat plant response rating: scale of 0 to 10 where 0 is no effect and 10 is complete control
How it was run: as §1

wild oat = assay: Test B pre/postemergence wild oat; assay type: in vivo, Avena fatua; settings: for Wild oats plant response rating: scale of 0 to 10 where 0 is no effect and 10 is complete control
How it was run: as §1

purple nutsedge = assay: Test B pre/postemergence purple nutsedge; assay type: in vivo, Cyperus rotundus; settings: for Nutsedge plant response rating: scale of 0 to 10 where 0 is no effect and 10 is complete control
How it was run: as §1

rice = assay: Test B flood test rice; assay type: in vivo, Oryza sativa
How it was run: (§2)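 Flood test on plants grown to the 2-leaf stage; treated plants kept in greenhouse twelve to sixteen days, then visually rated against controls on a 0 (no effect) to 10 (complete control) scale.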

smallflower flatsedge = assay: Test B flood test smallflower flatsedge; assay type: in vivo, Cyperus difformis
How it was run: as §2

duck salad = assay: Test B flood test duck salad; assay type: in vivo, Heteranthera limosa
How it was run: as §2

[1] = Preemergence, Rate 500 g/ha, scale of 0 to 10 where 0 is no effect and 10 is complete control
[2] = Postemergence, Rate 125 g/ha, scale 0 to 10, 0 is no effect, 10 is complete control
[3] = Rate 500 g/ha, Postemergence, scale 0 to 10, 0 no effect, 10 complete control
[4] = Preemergence, Rate 62 g/ha, scale 0 to 10 (0 no effect, 10 complete control)
[5] = Postemergence (flood test), Rate 125 g/ha, scale 0 to 10, 0 is no effect, 10 is complete control
[6] = Rate 62 g/ha, Postemergence (flood test species), scale of 0 to 10 where 0 is no effect and 10 is complete control
[7] = Rate 500 g/ha, listed under Postemergence (flood test species), scale 0 to 10, 0 no effect, 10 complete control

CC(C)N(C(=O)n1oc(=O)n(C2CCC2)c1=O)c1ccccc1 [Compound 348]
8: Plant response rating, Giant foxtail (giant foxtail; [2]) | Wild oats plant response rating (wild oat; Preemergence, Rate 250 g/ha)
0: B. signalgrass plant response rating (surinam grass; Rate 62 g/ha, Postemergence, scale of 0 to 10 where 0 is no effect and 10 is complete control) | Plant response rating, Cocklebur (cocklebur; [2]) | Plant response rating, Cocklebur (cocklebur; [4]) | Cocklebur plant response rating (0 to 10 scale) (cocklebur; Preemergence, Rate 125 g/ha) | Cocklebur plant response rating (cocklebur; Preemergence, Rate 250 g/ha) | Cocklebur plant response rating (cocklebur; Preemergence, Rate 500 g/ha) | Cocklebur plant response rating (cocklebur; Rate 62 g/ha, Postemergence) | Plant response rating, Corn (corn; [2]) | Plant response rating, Corn (corn; [4]) | Corn plant response rating (corn; Rate 62 g/ha, Postemergence) | Plant response rating, Redroot pigweed (pigweed; [2]) | Plant response rating, Redroot pigweed (pigweed; [4]) | Redroot pigweed plant response rating (0 to 10 scale) (pigweed; Preemergence, Rate 125 g/ha) | Redroot pigweed plant response rating (pigweed; Rate 62 g/ha, Postemergence) | Plant response rating, Rape (rape; [2]) | Plant response rating, Rape (rape; [4]) | Rape plant response rating (0 to 10 scale) (rape; Preemergence, Rate 125 g/ha) | Rape plant response rating (rape; Rate 62 g/ha, Postemergence) | Plant response rating, Soybean (soybean; [4]) | Soybean plant response rating (0 to 10 scale) (soybean; Preemergence, Rate 125 g/ha) | Soybean plant response rating (soybean; Preemergence, Rate 250 g/ha) | Soybean plant response rating (soybean; Preemergence, Rate 500 g/ha) | Plant response rating, Sugarbeets (sugar beet; [2]) | Plant response rating, Sugarbeets (sugar beet; [4]) | Sugarbeets plant response rating (0 to 10 scale) (sugar beet; Preemergence, Rate 125 g/ha) | Sugarbeets plant response rating (sugar beet; Rate 62 g/ha, Postemergence) | Plant response rating, Wheat (wheat; [4]) | Wheat plant response rating (0 to 10 scale) (wheat; Preemergence, Rate 125 g/ha) | Wheat plant response rating (wheat; Preemergence, Rate 250 g/ha) | Wheat plant response rating (wheat; Preemergence, Rate 500 g/ha) | Plant response rating, Nutsedge (purple nutsedge; [2]) | Plant response rating, Nutsedge (purple nutsedge; [4]) | Nutsedge plant response rating (0 to 10 scale) (purple nutsedge; Preemergence, Rate 125 g/ha) | Nutsedge plant response rating (purple nutsedge; Preemergence, Rate 250 g/ha) | Nutsedge plant response rating (purple nutsedge; Preemergence, Rate 500 g/ha) | Nutsedge plant response rating (purple nutsedge; Rate 62 g/ha, Postemergence) | Plant response rating, Rice (rice; [5]) | Rice plant response rating (rice; [6]) | Plant response rating, Rice (rice; [7]) | Ducksalad plant response rating (duck salad; [6])
1: Plant response rating, B. signalgrass (surinam grass; [2]) | Soybean plant response rating (soybean; Rate 62 g/ha, Postemergence)
10: Giant foxtail plant response rating (0 to 10 scale) (giant foxtail; Preemergence, Rate 125 g/ha) | Giant foxtail plant response rating (giant foxtail; Preemergence, Rate 250 g/ha) | Giant foxtail plant response rating (giant foxtail; Preemergence, Rate 500 g/ha) | Redroot pigweed plant response rating (pigweed; Preemergence, Rate 250 g/ha) | Redroot pigweed plant response rating (pigweed; Preemergence, Rate 500 g/ha) | Wild oats plant response rating (wild oat; Preemergence, Rate 500 g/ha)
9: Bedstraw plant response rating (bedstraw; [1]) | Corn plant response rating (corn; Preemergence, Rate 500 g/ha) | Plant response rating, Giant foxtail (giant foxtail; [4]) | Plant response rating, Giant foxtail (giant foxtail; [3])
2: Plant response rating, Bedstraw (bedstraw; Rate 125 g/ha, scale 0 to 10, 0 is no effect, 10 is complete control) | Plant response rating, Cocklebur (cocklebur; [3]) | Corn plant response rating (0 to 10 scale) (corn; Preemergence, Rate 125 g/ha) | Corn plant response rating (corn; Preemergence, Rate 250 g/ha) | Rape plant response rating (rape; Preemergence, Rate 250 g/ha) | Plant response rating, Soybean (soybean; [2]) | Plant response rating, Velvetleaf (velvetleaf; [2]) | Velvetleaf plant response rating (velvetleaf; Rate 62 g/ha, Postemergence) | Wheat plant response rating (wheat; Rate 62 g/ha, Postemergence) | Wild oats plant response rating (wild oat; Rate 62 g/ha, Postemergence)
6: Sugarbeets plant response rating (sugar beet; Preemergence, Rate 500 g/ha) | Plant response rating, Velvetleaf (velvetleaf; [3]) | Plant response rating, Nutsedge (purple nutsedge; [3]) | Plant response rating, S. Flatsedge (smallflower flatsedge; [5])
3: B. signalgrass plant response rating (0 to 10 scale, 0 is no effect, 10 is complete control) (surinam grass; Preemergence, Rate 125 g/ha) | Plant response rating, Corn (corn; [3]) | Giant foxtail plant response rating (giant foxtail; Rate 62 g/ha, Postemergence) | Sugarbeets plant response rating (sugar beet; Preemergence, Rate 250 g/ha) | Plant response rating, Sugarbeets (sugar beet; [3]) | Plant response rating, Velvetleaf (velvetleaf; [4]) | Velvetleaf plant response rating (0 to 10 scale) (velvetleaf; Preemergence, Rate 125 g/ha) | Plant response rating, Wheat (wheat; [2]) | Plant response rating, Wild oats (wild oat; [2]) | Plant response rating, Wild oats (wild oat; [4]) | Plant response rating, Ducksalad (duck salad; [5])
7: Plant response rating, Bedstraw (bedstraw; Rate 500 g/ha, scale 0 to 10, 0 no effect, 10 complete control) | B. signalgrass plant response rating (surinam grass; [1]) | Plant response rating, B. signalgrass (surinam grass; [3]) | Rape plant response rating (rape; Preemergence, Rate 500 g/ha) | Velvetleaf plant response rating (velvetleaf; Preemergence, Rate 250 g/ha) | Velvetleaf plant response rating (velvetleaf; Preemergence, Rate 500 g/ha) | Plant response rating, Wild oats (wild oat; [3]) | Plant response rating, S. Flatsedge (smallflower flatsedge; [7])
4: Plant response rating, Bedstraw (bedstraw; Rate 250 g/ha, scale of 0 to 10 where 0 is no effect and 10 is complete control) | Plant response rating, B. signalgrass (surinam grass; Rate 250 g/ha, Postemergence, scale of 0 to 10 where 0 is no effect and 10 is complete control) | Plant response rating, Soybean (soybean; [3]) | Plant response rating, Wheat (wheat; [3]) | Wild oats plant response rating (0 to 10 scale) (wild oat; Preemergence, Rate 125 g/ha) | S. Flatsedge plant response rating (smallflower flatsedge; [6]) | Plant response rating, Ducksalad (duck salad; [7])
5: B. signalgrass plant response rating (surinam grass; Preemergence, Rate 250 g/ha, scale of 0 to 10 where 0 is no effect and 10 is complete control) | Plant response rating, Redroot pigweed (pigweed; [3]) | Plant response rating, Rape (rape; [3])
